# Reference: patent US10322995B2, “Substituted cyano cycloalkyl penta-2,4-dienes, cyano cycloalkyl pent-2-en-4-ynes, cyano heterocyclyl penta-2,4-dienes and cyano heterocyclyl pent-2-en-4-ynes as active substances against abiotic plant stress” (BAYER CROPSCIENCE AKTIENGESELLSCHAFT, priority 2014, dated 2019)
# How the values were obtained:
# [1] = tested on: Brassica napus (BRSNS); assay: In vivo analyses Part C: drought stress, appearance vs stressed control plants in categories (BRSNS); set-up: key: 0: no positive effect; 10: slight positive effect; 20: clear positive effect; 30: strong positive effect; conditions: appearance vs stressed control plants after recovery phase, efficacy range of 3-4 pots
# Protocol: Seeds of monocotyledonous and dicotyledonous crop plants were sown in sandy loam in plastic or wood-fibre pots, covered with soil or sand and cultivated in a greenhouse under good growth conditions. The test plants were treated at the early leaf stage (BBCH10-BBCH13). To assure uniform water supply before commencement of stress, the potted plants were supplied with water by dam irrigation prior to substance application. The inventive compounds were first formulated as wettable powders (WP) or dissolved in a solvent mixture. The further dilution was effected with water supplemented with 0.2% wetting agent (e.g. agrotin). The finished spray liquor was sprayed onto the green parts of the plant at an equivalent water application rate of 600 I/ha. Substance application was followed immediately by stress treatment of the plants. For this purpose, the wood-fibre pots were transferred in plastic inserts in order to prevent them from subsequently drying out too quickly. Drought stress was induced by gradual drying out under the following conditions: “Day”: 14 hours with illumination at 26-30° C. “Night”: 10 hours without illumination at 18-20° C. The duration of the respective stress phases was guided mainly by the condition of the stressed control plants. It was ended (by re-irrigating and transfer to a greenhouse with good growth conditions) as soon as irreversible damage was observed on the stressed control plants. The end of the stress phase was followed by an about 4-7-day recovery phase, during which the plants were once again kept under good growth conditions in a greenhouse. The duration of the recovery phase was guided mainly by when the trial plants had attained a state which enabled visual scoring of potential effects, and was therefore variable. Once this juncture had been reached, the appearance of the plants treated with test substances was recorded in comparison to the stressed control plants by the following categories: [table] For each substance and dosage, 3-4 pots were treated and evaluated. BRSNS=Brassica napus
# [2] = tested on: Zea mays (ZEAMX); assay: In vivo analyses Part A: drought stress, visual damage scoring, efficacy EF (ZEAMX); conditions: spray application 250 g/ha, efficacy = reduction in damage intensity
# Protocol: Seeds of monocotyledonous and dicotyledonous crop plants were sown in sandy loam in wood-fibre pots, covered with soil or sand and cultivated in a greenhouse under good growth conditions. The test plants were treated at the early leaf stage (BBCH10-BBCH13). To assure uniform water supply before commencement of stress, the potted plants were supplied with water by dam irrigation prior to substance application. The inventive compounds, formulated in the form of wettable powders (WP), were sprayed onto the green parts of the plants as an aqueous suspension at an equivalent water application rate of 600 I/ha with addition of 0.2% wetting agent (e.g. agrotin). Substance application was followed immediately by stress treatment of the plants. For this purpose, the pots were transferred in plastic inserts in order to prevent them from subsequently drying out too quickly. Drought stress was induced by gradual drying out under the following conditions: “Day”: 14 hours with illumination at 26° C. “Night”: 10 hours without illumination at 18° C. The duration of the respective stress phases was guided mainly by the condition of the stressed control plants. […] Once this juncture was reached, the intensities of damage were scored visually in comparison to untreated, unstressed controls of the same age. The damage intensity was at first assessed in percent. […]
smiles,measurement,setting,value
CCC(C=CC(O)(c1ccccc1)C1(C#N)CC1)=CC(=O)O (racemic) [I.2-201],Effect (BRSNS),[1]; dosage 250 g/ha,10-30
CCOC(=O)/C=C(/C)C#CC(O)(C(C)C)C1(C#N)CC1 (stereo not drawn) [I.1-136],EF [%] (ZEAMX),[2],>5%
CC/C(C#CC(O)(C1CCC1)C1(C#N)CC1)=C/C(=O)OC (stereo not drawn) [I.1-648],Effect (BRSNS),[1]; dosage 25 g/ha,30
